The first experiment has as its system human neuroblastoma line BE(2)-M17 (M17) cells. Description: Measurement of Fe efflux from cells (57Fe in media by ICP-MS). The conditions noted are these: Homo sapiens; M17 cells pre-loaded with 57Fe; compound 20 μM, 2 h; Fe in media as percentage increase relative to cell media in the absence of the compound; read-out: % Fe Efflux Range. The experiment is classed as cell-based. As for the experimental part:
Compounds of the current invention were assessed for their ability to efflux iron (Fe) from a cell using the following protocol. The human neuroblastoma line BE(2)-M17 (M17) cell cultures were acquired from Sigma Aldrich (Catalogue #: 95011816). M17 cells were maintained in Opti-MEM reduced serum media supplemented with 10% fetal bovine serum (Bovogen, SFBSF) and passaged twice weekly. Cells were cultured at 37° C. in the presence of 5% CO2. Culture supplies were sourced from Thermo Fisher unless otherwise stated. A solution of ^57Fe isotope was prepared by dissolving ^57Fe metal (>95% enrichment, Trace Sciences International) in concentrated HCl to give a final concentration of 573 mM. From this master solution, a 10 mM working solution was prepared in sterile water. The working solution was used within two months of preparation. M17 cells were loaded with iron initially by seeding into 48-well plates at a density of 0.15×10^6 cells per well in 0.5 mL media. After 48 h, old media was discarded. Fresh media was added supplemented from the 10 mM ^57Fe working solution to yield media containing 20 μM ^57Fe isotope. Cells received 0.2 mL of this ^57Fe enriched media and were returned to the incubator for 20 h. The ability of experimental compounds to efflux iron was determined by the dissolution of compounds in DMSO and diluted in Hanks' Balanced Salt Solution (HBSS) for treatment of M17 cells. After ^57Fe incubation, cells were rinsed twice with HBSS and treated with 0.15 ml trial compound for 2 h. Experimental substances were routinely screened at a concentration of 20 μM, however dilutions ranging from 1-40 μM were occasionally applied to further elucidate the properties of key compounds. All assays included a relevant vehicle (0.4%-0.8% DMSO) as well as a positive control. Following the treatment period, 0.1 mL of media was collected from cells and the extracellular ^57Fe content was analysed via inductively coupled mass spectrometry (ICP-MS, Agilent 7700×series instrument). […] After 2 h the Fe levels in the media were measured and the increase determined as a percentage increase relative to the cell media in the absence of the compound. [formula] Representative data is provided in Table 1 where the % Fe efflux for the specified compounds of the invention lie in the following ranges: A<30%, B 30-100%, C 100-150%; D>150%
As to `Cc1ccc(O)c(-c2nc(-c3ccccc3O)n3c2CCCC3)n1` [Compound 1, 2-(3-(2-Hydroxyphenyl)-5,6,7,8-tetrahydroimidazo[1,5-a]pyridin-1-yl)-6-methylpyridin-3-ol], the activation at 20 µM was above 150%. On the same count and under the same terms, the value for `Cc1ccc(O)c(-c2nc(-c3cccc(F)c3O)n3c2CCCC3)n1` [Compound 2, 2-(3-(3-Fluoro-2-hydroxyphenyl)-5,6,7,8-tetrahydroimidazo[1,5-a]pyridin-1-yl)-6-methylpyridin-3-ol] was above 150%. Turning to `Cc1ccc(O)c(-c2nc(-c3cc(F)ccc3O)n3c2CCCC3)n1` [Compound 3, 2-(3-(5-Fluoro-2-hydroxyphenyl)-5,6,7,8-tetrahydroimidazo[1,5-a]pyridin-1-yl)-6-methylpyridin-3-ol], the activation at 20 µM lay within 100 to 150%. Turning to `Cc1ccc(O)c(-c2nc(-c3c(O)cccc3F)n3c2CCCC3)n1` [Compound 4, 2-(3-(2-Fluoro-6-hydroxyphenyl)-5,6,7,8-tetrahydroimidazo[1,5-a]pyridin-1-yl)-6-methylpyridin-3-ol], the activation at 20 µM lay within 30 to 100%. For `Cc1ccc(O)c(-c2nc(-c3nc(C)ccc3O)c3n2CCCC3)c1` [Compound 5, 2-(3-(2-Hydroxy-5-methylphenyl)-5,6,7,8-tetrahydroimidazo[1,5-a]pyridin-1-yl)-6-methylpyridin-3-ol], the activation at 20 µM was above 150%.

For `Cc1ccc(O)c(-c2nc(-c3cccc(C)c3O)n3c2CCCC3)n1` [Compound 6, 2-(3-(2-Hydroxy-3-methylphenyl)-5,6,7,8-tetrahydroimidazo[1,5-a]pyridin-1-yl)-6-methylpyridin-3-ol], the activation at 20 µM was 100 to 150%. With `Oc1ccccc1-c1nc(-c2ccccc2O)n2c1CCCC2` [Compound 7, 2,2′-(5,6,7,8-tetraHydroimidazo[1,5-a]pyridine-1,3-diyl)diphenol], the activation at 20 µM is below 30%.

With `Cc1ccc(O)c(-c2nc(-c3ccccc3O)c3n2CCCC3)c1` [Compound 8, 2-(1-(2-Hydroxyphenyl)-5,6,7,8-tetrahydroimidazo[1,5-a]pyridin-3-yl)-4-methylphenol], the activation at 20 µM is below 30%.

`Oc1ccccc1-c1nc(-c2c(O)cccc2F)n2c1CCCC2` [Compound 9, 3-Fluoro-2-(1-(2-hydroxyphenyl)-5,6,7,8-tetrahydroimidazo[1,5-a]pyridin-3-yl)phenol]: the activation at 20 µM is below 30%.

As to `COC(=O)c1ccc(O)c(-c2nc(-c3ccccc3O)c3n2CCCC3)c1` [Compound 10, Methyl 4-hydroxy-3-(1-(2-hydroxyphenyl)-5,6,7,8-tetrahydroimidazo[1,5-a]pyridin-3-yl)benzoate], the activation at 20 µM lay in the range of 30 to 100%. For the compound `Oc1ccccc1-c1nc(-c2ccccn2)n2c1CCCC2` [Compound 11, 2-(3-(Pyridin-2-yl)-5,6,7,8-tetrahydroimidazo[1,5-a]pyridin-1-yl)phenol], the activation at 20 µM was below 30%. Still for that read-out and setting: then `Oc1ccccc1-c1nc(-c2cccc(CN3CCOCC3)c2O)n2c1CCCC2` [Compound 12, 2-(1-(2-Hydroxyphenyl)-5,6,7,8-tetrahydroimidazo[1,5-a]pyridin-3-yl)-6-(morpholinomethyl)phenol], with below 30%; and `Cc1ccc(O)c(-c2nc(-c3cccnc3O)c3n2CCCC3)c1` [Compound 13, 3-(3-(2-Hydroxy-5-methylphenyl)-5,6,7,8-tetrahydroimidazo[1,5-a]pyridine-1-yl)pyridine-2-ol], with 100 to 150%; and `Oc1ncccc1-c1nc(-c2cccc(Cl)c2O)n2c1CCCC2` [Compound 14, 3-(3-(3-Chloro-2-hydroxyphenyl)-5,6,7,8-tetrahydroimidazo[1,5-a]pyridin-1-yl)pyridin-2-ol], with 100 to 150%.

Take `Oc1ccccc1-c1nc(-c2cccnc2O)c2n1CCCC2` [Compound 15, 3-(3-(2-hydroxyphenyl)-5,6,7,8-tetrahydroimidazo[1,5-a]pyridin-1-yl)pyridin-2-ol]: the activation at 20 µM lay in the range of 100 to 150%. `CCN(CC)CCc1cccc(-c2nc(-c3ccncc3O)c3n2CCCC3)c1O` [Compound 22, 4-(3-(3-(2-(Diethylamino)ethyl)-2-hydroxyphenyl)-5,6,7,8-tetrahydroimidazo[1,5-a]pyridin-1-yl)pyridin-3-ol]: the activation at 20 µM fell in the range of 100 to 150%. Consider `Oc1ccncc1-c1nc(-c2ccccc2O)n2c1CCCC2` [Compound 29, 3-(3-(2-Hydroxyphenyl)-5,6,7,8-tetrahydroimidazo[1,5-a]pyridin-1-yl)pyridin-4-ol], for which the activation at 20 µM was in the range of 100 to 150%. Take `Oc1ccncc1-c1nc(-c2cccc(F)c2O)n2c1CCCC2` [Compound 30, 3-(3-(3-Fluoro-2-hydroxyphenyl)-5,6,7,8-tetrahydroimidazo[1,5-a]pyridin-1-yl)pyridin-4-ol]: the activation at 20 µM was above 150%.

As for `Oc1ccccc1-c1nc(-c2ccccc2O)n2c1CCC(C(F)(F)F)C2` (stereo not drawn) [Compound 36, 2,2′-(6-(Trifluoromethyl)-5,6,7,8-tetrahydroimidazo[1,5-a]pyridine-1,3-diyl)diphenol], the activation at 20 µM was below 30%. On the same count and under the same terms, then `Cc1ccc(O)c(-c2nc(-c3ccccc3O)c3n2CC(C)CC3)c1` (stereo not drawn) [Compound 37, 2-(1-(2-Hydroxyphenyl)-6-methyl-5,6,7,8-tetrahydroimidazo[1,5-a]pyridin-3-yl)-4-methylphenol], with below 30%; and `Cc1ccc(O)c(-c2nc(-c3ccccc3O)c3n2CC(C(F)(F)F)CC3)c1` (stereo not drawn) [Compound 38, 2-(1-(2-Hydroxyphenyl)-6-(trifluoromethyl)-5,6,7,8-tetrahydroimidazo[1,5-a]pyridin-3-yl)-4-methylphenol], with below 30%; and `Cc1ccc(O)c(-c2nc(-c3ccccc3O)n3c2CCC3)n1` [Compound 50, 2-(3-(2-Hydroxyphenyl)-6,7-dihydro-5H-pyrrolo[1,2-c]imidazol-1-yl)-6-methylpyridin-3-ol], with above 150%. In the case of `Cc1ccc(O)c(-c2nc(-c3cccc(F)c3O)n3c2CCC3)n1` [Compound 59, 2-(3-(3-Fluoro-2-hydroxyphenyl)-6,7-dihydro-5H-pyrrolo[1,2-c]imidazol-1-yl)-6-methylpyridin-3-ol], the activation at 20 µM is above 150%.

Staying with this experiment, now noted: M17 cells pre-loaded with 57Fe; compound 20 μM, 2 h; Fe in media as percentage increase relative to cell media in the absence of the compound.
For `Oc1cnccc1-c1nc(-c2ccccc2O)n2c1CCCC2` [Compound 21, 4-(3-(2-Hydroxyphenyl)-5,6,7,8-tetrahydroimidazo[1,5-a]pyridin-1-yl)pyridin-3-ol], the “% Fe Efflux Range” value was “D (D>150%)”.
